Data from paper PMC9942197, “Mechanistic Insights into the Ene-Reductase-Catalyzed Promiscuous Reduction of Oximes to Amines” (ACS Catalysis, 2023).
Each block holds one compound with its values, some of them ahead of it.

Tests used:
OPR3 [1] = molecular target: T1, OPR3 (Solanum lycopersicum, UniProt Q9FEW9); assay: stopped-flow pre-steady-state kinetics, oxidative half-reaction; assay type: biochemical; settings: oxidative half-reaction of reduced enzyme; read-out: Kd oxime
T1 construct: recombinant purified FMN ene-reductase; construct details in supplement
T1 sequence (Q9FEW9 whole entry): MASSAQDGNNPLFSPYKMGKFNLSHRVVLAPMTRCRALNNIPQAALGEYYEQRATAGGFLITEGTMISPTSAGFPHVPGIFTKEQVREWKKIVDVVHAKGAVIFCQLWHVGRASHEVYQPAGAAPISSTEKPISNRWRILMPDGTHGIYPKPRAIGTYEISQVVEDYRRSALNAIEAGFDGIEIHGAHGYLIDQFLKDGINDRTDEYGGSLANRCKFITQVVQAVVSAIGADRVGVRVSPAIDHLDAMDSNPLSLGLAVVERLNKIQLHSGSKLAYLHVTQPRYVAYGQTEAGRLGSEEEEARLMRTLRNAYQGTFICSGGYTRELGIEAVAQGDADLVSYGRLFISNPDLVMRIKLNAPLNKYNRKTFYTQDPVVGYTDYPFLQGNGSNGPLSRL
From the text: (§1) stopped-flow pre-steady-state kinetics, oxidative half-reaction on OPR3

OPR3 [2] = molecular target: T2, OPR3 (Solanum lycopersicum, UniProt Q9FEW9, Y370F); assay: as above; assay type: biochemical; settings: oxidative half-reaction of reduced enzyme; read-out: Kd oxime
T2 construct: recombinant purified FMN ene-reductase; construct details in supplement
T2 sequence (Q9FEW9 whole entry Y370F): as the sequence (Q9FEW9 whole entry) above, with Y370F counted along it
From the text: as §1

OPR3 [3] = molecular target: T3, OPR3 (Solanum lycopersicum, UniProt Q9FEW9, Y190F); assay: as above; assay type: biochemical; settings: oxidative half-reaction of reduced enzyme; read-out: Kd oxime
T3 construct: recombinant purified FMN ene-reductase; construct details in supplement
T3 sequence (Q9FEW9 whole entry Y190F): as the sequence (Q9FEW9 whole entry) above, with Y190F counted along it
From the text: as §1

XenA [4] = molecular target: T4, XenA (Pseudomonas putida, UniProt Q9R9V9); assay: X-ray crystal structure; assay type: binding; settings: active site, oxidized flavin
T4 construct: recombinant purified FMN ene-reductase, His-tagged (position differs from earlier reports)
T4 sequence (Q9R9V9 entry or part of it): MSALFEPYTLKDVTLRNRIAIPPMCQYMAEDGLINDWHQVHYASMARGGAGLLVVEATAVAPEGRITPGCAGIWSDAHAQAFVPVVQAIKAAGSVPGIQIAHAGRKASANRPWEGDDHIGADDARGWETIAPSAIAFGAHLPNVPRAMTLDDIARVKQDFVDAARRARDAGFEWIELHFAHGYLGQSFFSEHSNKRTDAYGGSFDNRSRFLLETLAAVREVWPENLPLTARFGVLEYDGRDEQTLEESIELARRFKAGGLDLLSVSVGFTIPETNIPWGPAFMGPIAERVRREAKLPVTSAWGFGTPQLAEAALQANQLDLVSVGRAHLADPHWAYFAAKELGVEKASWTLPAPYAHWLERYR

XenA [5] = molecular target: T4, XenA; assay: stopped-flow pre-steady-state kinetics, oxidative half-reaction; assay type: biochemical; settings: oxidative half-reaction of reduced enzyme; read-out: Kd oxime
From the text: stopped-flow pre-steady-state kinetics, oxidative half-reaction on XenA

OPR3 [6] = molecular target: T1, OPR3; assay: X-ray crystal structure; assay type: binding; settings: active site, oxidized flavin
XenA [7] = molecular target: T4, XenA; assay: stopped-flow pre-steady-state kinetics, reductive half-reaction; assay type: biochemical; settings: read-out: Kd NADPH; reductive half-reaction of oxidized enzyme
From the text: stopped-flow pre-steady-state kinetics, reductive half-reaction on XenA

Kd (OPR3 [1]): 79 ± 4 µM
Kd (OPR3 [2]): 37.4 ± 4.4 µM
Kd (OPR3 [3]): 69 ± 4 µM
X-ray crystal structure (XenA [4]): (b) XenA/1a.
SMILES: CCOC(=O)C(=NO)C(C)=O [1a, oxime 1a]

Kd (XenA [5]): 6430 ± 1570 µM
X-ray crystal structure (OPR3 [6]): (c) OPR3/1b.
SMILES: CCOC(=O)C(=NO)C(=O)CC [1b, oxime 1b]

Kd (XenA [7]): 109 ± 5.1 µM
SMILES: NC(=O)C1=CN([C@@H]2O[C@H](COP(=O)(O)OP(=O)(O)OC[C@H]3O[C@@H](n4cnc5c(N)ncnc54)[C@H](OP(=O)(O)O)[C@@H]3O)[C@@H](O)[C@H]2O)C=CC1 [NADPH]
